This assay concerns RSV A2 strain. In words: In vitro CPE (CytoPathic Effect) inhibition effect evaluation test, RSV type A. In kind it is cell-based. As to conditions: inhibitory effect against RSV type A (RSV A2 strain), HEp-2 cells, CPE inhibition, read-out: EC50. As for the experimental part: The test sample is diluted in advance to an appropriate concentration with DMSO, and 3-fold series of serial dilutions were prepared on a 384-well plate (0.32 μL/well). HEp-2 cells (CCL-23; ATCC) adjusted at appropriate number (2.4×10^5 cells/mL) in 2% FBS E-MEM (prepared by adding kanamycin and FBS to Eagle's Minimum Essential Medium; Invitrogen) were added at 12.5 μL/well to the 384-well plate previously aliquoted with the test samples. The RSV A2 strain was diluted to an appropriate concentration in a culture medium and added to the 384-well plate containing the test sample at 12.5 μL/well. The culture medium was added additionally to the 384-well plate, and the test was started with 50 μL/well. Control wells were prepared with only virus-free culture medium. The plate was incubated in a 5% CO2 incubator at 37° C. for 4 days, and the plate was then placed at room temperature for 30 minutes. CellTiter-Glo (registered trademark) 2.0 assay (Promega) was added at 15 μL/well, mixed for 30 seconds, and the plate was placed for approximately 1 hour. The luminescent signal was then measured by EnVision (PerkinElmer). The inhibitory effect of the test agents on RSV-induced CPE was calculated as 0% and 100% inhibition rate for each sample concentration based on the level of remaining viable cells by CellTiter-Glo (registered trademark) 2.0, with the EC50 value for each compound calculated by nonlinear regression as the concentration that inhibits RSV-induced CPE by 50%. In the case of evaluation against RSV type B, RSV B (Wash/18537 strain) was infected in the same manner as the type A, cultured for 5 days, and quantitated in the same manner as for the A2 strain.
A general note: Protection from cytopathic effect is a common read-out in antiviral testing.

Setting [1] is: human respiratory syncytial virus.

Like-named read-outs stand apart in the source and are kept apart here. A value given as a limit tells only on which side of the number the result lay.

What is called EC50 is the concentration at which the effect is half-maximal. On to `O=C(NC(C(=O)O)C1CCCCC1)c1cnc(N2CCc3cc(OC4CCN(c5ncccn5)CC4)ccc32)nc1C(F)(F)F` (racemic) [Compound I-50], for which the EC50 under setting [1] lay in the range of 10 to 100 nM.
Same read-out and setting: the figure for `O=C(NC1(C(=O)O)CCOCC1)c1cnc(N2CCc3cc(OC4CCN(c5ncccn5)CC4)ccc32)nc1C(F)(F)F` [Compound I-47] is 10 to 100 nM.
Same read-out and setting: the value for `O=C(NC1(C(=O)O)C2CC3CC(C2)CC1C3)c1cnc(-c2cn(C3CCC(F)(F)CC3)c3cc(C(=O)N4CCN(c5ncc(F)cn5)CC4)ccc23)nc1C(F)(F)F` (stereo not drawn) [Compound I-433] was less than 10 nM.
Turning to `O=C(NC1(C(=O)O)C2CC3CC(C2)CC1C3)c1ccc(-c2cn(C3CCC(F)CC3)c3cc(O[C@H]4CC[C@H](N5CC(F)(F)C5)CC4)ccc23)nc1C(F)(F)F` (single isomer, unassigned) [Compound I-584], the EC50 is less than 10 nM.
`COc1cccc(CCc2ccc3c(c2)CCN3c2ncc(C(=O)NC3(C(=O)O)CCCCC3)c(C(F)(F)F)n2)c1` [Compound I-26]: under setting [1], the EC50 was 10 to 100 nM.
The same measure, in the same setting: the figure for `O=C(NC1(C(=O)O)CC2CCC1C2)c1cnc(N2CCc3cc(OCCC4CCOCC4)ccc32)nc1C(F)(F)F` (stereo not drawn) [Compound I-12] is less than 10 nM.
For the molecule `CC(C)(C)OC(=O)N1CCC(Oc2ccc3c(c2)CCN3c2ncc(C(=O)NC3(C(=O)O)CCCCC3)c(C(F)(F)F)n2)CC1` [Compound I-32], under setting [1], the EC50 is 10 to 100 nM.
Still for that read-out and setting: the value for `COC12CC3CC(C1)C(NC(=O)c1cnc(N4CC5(CCOCC5)c5cc(OC6CCN(c7ncccn7)CC6)ccc54)nc1C(F)(F)F)(C(=O)O)C(C3)C2` (single isomer, unassigned) [Compound I-210] was less than 10 nM.
On to `N#Cc1ccc(-n2cc(-c3ccc(C(=O)NC4(C(=O)O)C5CC6CC(C5)CC4C6)c(C(F)(F)F)n3)c3ccc(OC4CCN(c5ncccn5)CC4)cc32)nc1` (stereo not drawn) [Compound I-340], for which the concentration for a half-maximal effect (EC50) is less than 10 nM.
On the same count and under the same terms, the value for `O=C(NC1(C(=O)O)C2CC3CC(C2)CC1C3)c1cnc(N2CC3(CCOCC3)c3cc(Oc4ccccc4)ccc32)nc1C(F)(F)F` (stereo not drawn) [Compound I-348] was less than 10 nM.
As to `O=C(NC1(C(=O)O)CCCCC1)c1cnc(N2CCc3cc(OCCNc4ncccn4)ccc32)nc1C(F)(F)F` [Compound I-52], the EC50 under setting [1] was 10 to 100 nM.
For `CN(C(=O)c1ccccc1)c1ccc2c(c1)C1(CCOCC1)CN2c1ncc(C(=O)NC2(C(=O)O)C3CC4CC(C3)CC2C4)c(C(F)(F)F)n1` (stereo not drawn) [Compound I-343], the half-maximal effective concentration (EC50) lay within 10 to 100 nM.
In the case of `O=C(NC1(C(=O)O)CCCCC1)c1cnc(N2CCc3cc(O[C@@H]4CCN(c5ncccn5)C4)ccc32)nc1C(F)(F)F` [Compound I-74], under setting [1], the EC50 was less than 10 nM.
Same read-out and setting: the figure for `O=C(NC1(C(=O)O)CCCCC1)c1cnc(N2CC3(CCN(C(=O)OCc4ccccc4)CC3)c3cc(OCCC4CCOCC4)ccc32)nc1C(F)(F)F` [Compound I-61] is less than 10 nM.
`CC(F)(F)c1nc(-c2cn(C3CCC(F)CC3)c3cc(O[C@H]4CC[C@H](N5CC(F)(F)C5)CC4)ccc23)ncc1C(=O)NC1(C(=O)O)C2CC3CC(C2)CC1C3` (single isomer, unassigned) [Compound I-571]: the EC50 is less than 10 nM.
Turning to `O=C(NC1(C(=O)O)C2CC3CC(C2)CC1C3)c1cnc(N2CCc3cc(OCCC4CCOCC4)cnc32)cc1C(F)(F)F` (stereo not drawn) [Compound I-126], the EC50 under setting [1] is less than 10 nM.
As to `O=C(NC1(C(=O)O)C2CC3CC(C2)CC1C3)c1cnc(N2CC3(CCN(C4COC4)C3)c3cc(OC4CCN(c5ncccn5)CC4)ccc32)nc1C(F)(F)F` (racemic) [Compound I-333], the EC50 was less than 10 nM.
In the case of `O=C(NC1(C(=O)NS(=O)(=O)N2CCOCC2)CCCCC1)c1cnc(N2CCc3cc(OCCC4CCOCC4)ccc32)nc1C(F)(F)F` [Compound I-38], the EC50 under setting [1] lay within 10 to 100 nM.
Turning to `N#Cc1cccc(-n2cc(-c3ccc(C(=O)NC4(C(=O)O)C5CC6CC(C5)CC4C6)c(C(F)(F)F)n3)c3ccc(OC4CCN(c5ncccn5)CC4)cc32)n1` (stereo not drawn) [Compound I-339], the EC50 is less than 10 nM.
As to `O=C(NC1(C(=O)O)C2CC3CC(C2)CC1C3)c1cnc(N2CC3(CCOCC3)c3cc(CN4CCN(c5ncccn5)CC4)ccc32)nc1C(F)(F)F` (stereo not drawn) [Compound I-360], the EC50 was less than 10 nM.
As to `O=C(NC1(C(=O)O)C2CC3CC(C2)CC1C3)c1ccc(-c2cn(-c3ccc(F)cc3)c3cc(OC4CCN(c5ncccn5)CC4)ccc23)nc1C(F)(F)F` (stereo not drawn) [Compound I-389], under setting [1], the EC50 is less than 10 nM.
With `O=C(NC1(C(=O)O)C2CC3CC(C2)CC1C3)c1cnc(N2CC3(CCOCC3)c3cc(OC4CN(C(=O)OCc5ccccc5)C4)ccc32)nc1C(F)(F)F` (stereo not drawn) [Compound I-224], under setting [1], the EC50 is less than 10 nM.
Still for that read-out and setting: the figure for `NC(=O)C1(NC(=O)c2cnc(N3CC4(CCOCC4)c4cc(OCCN5CCOCC5)ccc43)nc2C(F)(F)F)C2CC3CC(C2)CC1C3` (stereo not drawn) [Compound I-170] is less than 10 nM.
In the case of `O=C(NC1(C(=O)O)C2CC3CC(C2)CC1C3)c1ccc(-c2cn(-c3ccccc3C(F)(F)F)c3cc(OC4CCN(c5ncccn5)CC4)ccc23)nc1C(F)(F)F` (stereo not drawn) [Compound I-327], the EC50 was less than 10 nM.
In the case of `O=C(NC1(C(=O)O)C2CC3CC(C2)CC1C3)c1cnc(-c2cn(C3CCC(F)(F)CC3)c3cc(OC4CCN(C(=O)c5ncccn5)CC4)ccc23)nc1C(F)(F)F` (stereo not drawn) [Compound I-260], the EC50 under setting [1] lay in the range of 10 to 100 nM.
Still for that read-out and setting: the value for `O=C(NC1(C(=O)O)CCC(F)(F)CC1)c1cnc(N2CCc3cc(OC4CCN(c5ncccn5)CC4)ccc32)nc1C(F)(F)F` [Compound I-49] was 10 to 100 nM.
Take `O=C(NC1(C(=O)O)C2CC3CC(C2)CC1C3)c1ccc(-c2cn(C3=CCC(F)(F)CC3)c3cc(OC4CCN(c5ncc(F)cn5)CC4)ccc23)nc1C(F)(F)F` (stereo not drawn) [Compound I-359]: the EC50 was less than 10 nM.
As for `Cc1ccc2c(c1)C1(CCN(C(=O)OCc3ccccc3)CC1)CN2c1ncc(C(=O)NC2(C(=O)O)C3CC4CC(C3)CC2C4)c(C(F)(F)F)n1` (stereo not drawn) [Compound I-132], the EC50 under setting [1] fell in the range of 10 to 100 nM.
As for `CC(F)(F)c1nc(N2CC3(CCOCC3)c3cc(OC4CCN(c5ncccn5)CC4)ccc32)ncc1C(=O)NC1(C(=O)O)C2CC3CC(C2)CC1C3` (stereo not drawn) [Compound I-294], the EC50 was less than 10 nM.
Turning to `O=C(NC1(C(=O)O)C2CC3CC(C2)CC1C3)c1cnc(N2CC3(CCOCC3)c3cc(OC4CN(C(=O)C5COC5)C4)ccc32)nc1C(F)(F)F` (stereo not drawn) [Compound I-230], under setting [1], the half-maximal effective concentration (EC50) was less than 10 nM.
As to `O=C(NC1(C(=O)O)C2CC3CC(C2)CC1C3)c1cnc(-c2cn(C3CCC(F)(F)CC3)c3cc(O[C@H]4CCN(CC(F)(F)F)C4)ccc23)nc1C(F)(F)F` (stereo partly drawn) [Compound I-375], the concentration for a half-maximal effect (EC50) under setting [1] was less than 10 nM.
On the same count and under the same terms, the value for `CNC(=O)C1(NC(=O)c2cnc(N3CC4(CCOCC4)c4cc(OC5CCN(c6ncccn6)CC5)ccc43)nc2C(F)(F)F)C2CC3CC(C2)CC1C3` (stereo not drawn) [Compound I-173] was 10 to 100 nM; that for `O=C(NC1(C(=O)O)C2CC3CC(C2)CC1C3)c1ccc(-c2cn(C3CCCC3)c3cc(OC4CCN(c5ncccn5)CC4)ccc23)nc1C(F)(F)F` (stereo not drawn) [Compound I-289] was less than 10 nM.
For the molecule `O=C(NC1(C(=O)O)CCCCC1)c1cnc(N2CCc3cc(OC4CCN(c5nccs5)CC4)ccc32)nc1C(F)(F)F` [Compound I-42], the EC50 under setting [1] was less than 10 nM.
As to `COC(=O)N1CCC(Oc2ccc3c(-c4ncc(C(=O)NC5(C(=O)O)C6CC7CC(C6)CC5C7)c(C(F)(F)F)n4)cn(C4CCC(F)(F)CC4)c3c2)CC1` (stereo not drawn) [Compound I-255], the EC50 under setting [1] is less than 10 nM.
Take `COCCCCOc1ccc2c(c1)CCN2c1ncc(C(=O)NC2(C(=O)O)C3CC4CC(C3)CC2C4)c(C(F)(F)F)n1` (stereo not drawn) [Compound I-22]: the concentration giving a half-maximal response (EC50) under setting [1] was less than 10 nM.

These data come from patent US12528790B2, “Amide derivative having antiviral activity” (Shionogi & Co., Ltd., priority 2020, dated 2026).
